The values below come from patent publication US20240228506A1, “RIPK1 INHIBITORS AND METHODS OF USE” (Merck Sharp & Dohme LLC, priority 2021, published 2024).

One may read the IC50 as the midpoint of a concentration-inhibition curve.

The target in this experiment is T1, GST-RIPK1 (recombinant GST-RIPK1 kinase domain (residues 1-327)) (Homo sapiens, UniProt Q13546).
T1 construct: recombinant GST-RIPK1 kinase domain (residues 1-327) enzyme; made in house; host or cells: baculovirus-transfected Sf21 insect cells
T1 sequence (Q13546 1-327): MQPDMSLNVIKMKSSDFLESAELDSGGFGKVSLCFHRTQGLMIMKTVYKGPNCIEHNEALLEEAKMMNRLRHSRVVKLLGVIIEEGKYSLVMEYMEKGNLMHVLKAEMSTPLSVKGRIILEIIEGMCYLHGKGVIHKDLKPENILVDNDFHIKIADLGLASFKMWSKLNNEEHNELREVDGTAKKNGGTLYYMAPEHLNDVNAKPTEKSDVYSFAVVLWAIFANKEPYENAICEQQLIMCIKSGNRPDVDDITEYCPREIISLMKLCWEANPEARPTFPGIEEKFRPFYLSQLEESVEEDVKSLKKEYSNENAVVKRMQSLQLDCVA
Briefly: RIPK1-ADP-Glo enzymatic assay. It counts as biochemical. The note with it: 25 nM GST-RIPK1, 300 μM ATP, 3 μM dephosphorylated-MBP; 30 minutes pre-incubation, 150 minutes reaction; ten-point titration. A digest of the protocol: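 Ten-point 1:3 titrations from 100000 nM, 1% DMSO, were preincubated 30 min with 25 nM GST-RIPK1 (1-327) before starting with 300 μM ATP plus 3 μM dephosphorylated MBP; 150 min reaction. ADP-Glo luminescence measured ATP-to-ADP conversion; EC50 by four-parameter sigmoidal regression.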
For `COc1ccnc(N2CCC(F)(C(=O)N3C[C@@H]4C[C@H]3c3cncc(C#N)c3O4)CC2)n1` [Compound 1-56, (2S,5S)-4-(4-fluoro-1-(4-methoxypyrimidin-2-yl)piperidine-4-carbonyl)-2,3,4,5-tetrahydro-2,5-methanopyrido[3,4-f][1,4]oxazepine-9-carbonitrile], the IC50 worked out at 41 nM. The value for `C#Cc1cncc2c1O[C@H]1C[C@@H]2N(C(=O)C(C)(C)C)C1` [Compound 2-17, 1-((2S,5S)-9-Ethynyl-2,3-dihydro-2,5-methanopyrido[3,4-f][1,4]oxazepin-4(5H)-yl)-2,2-dimethylpropan-1-one] was 50 nM.

For the compound `CC(C)(CC#N)C(=O)N1C[C@@H]2C[C@H]1c1cncc(C#N)c1S2` [Compound 4-4, (2S,5S)-4-(3-cyano-2,2-dimethylpropanoyl)-2,3,4,5-tetrahydro-2,5-methanopyrido[3,4-f][1,4]thiazepine-9-carbonitrile], the IC50 was found to be 42 nM. For the compound `COc1cccc(C#Cc2cncc3c2O[C@H]2C[C@@H]3N(C(=O)C34CCC(F)(CC3)C4)C2)c1` [Compound 2-98, (4-fluorobicyclo[2.2.1]heptan-1-yl)((2S,5S)-9-((3-methoxyphenyl)ethynyl)-2,3-dihydro-2,5-methanopyrido[3,4-f][1,4]oxazepin-4(5H)-yl)methanone], the IC50 came out at 13 nM. To `Cc1ccc(C#Cc2cncc3c2O[C@H]2C[C@@H]3N(C(=O)C(C)(C)C(F)F)C2)c(C)n1` [Compound 2-91, 1-((2S,5S)-9-((2,6-dimethylpyridin-3-yl)ethynyl)-2,3-dihydro-2,5-methanopyrido[3,4-f][1,4]oxazepin-4(5H)-yl)-3,3-difluoro-2,2-dimethylpropan-1-one] belongs 65 nM. To `CC1(C(=O)N2C[C@@H]3C[C@H]2c2cncc(C#N)c2O3)CCCC1(F)F` (single isomer, unassigned) [Compound 1-39] belongs 31 nM; to `N#Cc1cncc2c1O[C@H]1C[C@@H]2N(C(=O)C2(F)CCN(c3cc(-c4ccccc4)ncn3)CC2)C1` [Compound 1-70, (2S,5S)-4-(4-fluoro-1-(6-phenylpyrimidin-4-yl)piperidine-4-carbonyl)-2,3,4,5-tetrahydro-2,5-methanopyrido[3,4-f][1,4]oxazepine-9-carbonitrile], 35 nM; to `O=C(N1C[C@@H]2C[C@H]1c1cncc(C#Cc3cscn3)c1O2)C12CCC(C(F)(F)F)(CC1)C2` [Compound 2-54, ((2S,5S)-9-(thiazol-4-ylethynyl)-2,3-dihydro-2,5-methanopyrido[3,4-f][1,4]oxazepin-4(5H)-yl)(4-(trifluoromethyl)bicyclo [2.2.1]heptan-1-yl)methanone], 18 nM. For the compound `CC1(C(=O)N2C[C@@H]3C[C@H]2c2cncc(C#N)c2O3)Cc2cccc(Cl)c21` (single isomer, unassigned) [Compound 1-37, (2S,5S)-4-(5-chloro-7(R or S)-methylbicyclo[4.2.0]octa-1,3,5-triene-7-carbonyl)-2,3,4,5-tetrahydro-2,5-methanopyrido[3,4-f][1,4]oxazepine-9-carbonitrile], the IC50 was 136 nM. With `CC12COC(C(=O)N3C[C@@H]4C[C@H]3c3cncc(C#N)c3O4)(C1)C2` [Compound 1-73, (2S,5S)-4-(4-methyl-2-oxabicyclo[2.1.1]hexane-1-carbonyl)-2,3,4,5-tetrahydro-2,5-methanopyrido[3,4-f][1,4]oxazepine-9-carbonitrile], the IC50 was found to be 501 nM. The value for `CC(F)(F)C(C)(C)C(=O)N1C[C@@H]2C[C@H]1c1cncnc1O2` [Compound 3-2, 1-((5S,8S)-7,8-dihydro-5,8-methanopyrimido[5,4-f][1,4]oxazepin-6(5H)-yl)-3,3-difluoro-2,2-dimethylbutan-1-one] was 1210 nM; that for `CC(C)(C(=O)N1C[C@@H]2C[C@H]1c1cncc(C#N)c1O2)C(F)(F)F` [Compound 1-9, (2S,5S)-4-(3,3,3-trifluoro-2,2-dimethylpropanoyl)-2,3,4,5-tetrahydro-2,5-methanopyrido[3,4-f][1,4]oxazepine-9-carbonitrile] was 20 nM; that for `C#Cc1cncc2c1O[C@H]1C[C@@H]2N(C(=O)C23CCC(C(F)(F)F)(CC2)C3)C1` [Compound 2-33, ((2S,5S)-9-ethynyl-2,3-dihydro-2,5-methanopyrido[3,4-f][1,4]oxazepin-4(5H)-yl)(4-(trifluoromethyl)bicyclo [2.2.1]heptan-1-yl)methanone] was 38 nM.

As for `Cn1cncc1C#Cc1cncc2c1O[C@H]1C[C@@H]2N(C(=O)C23CCC(C(F)(F)F)(CC2)C3)C1` [Compound 2-55, ((2S,5S)-9-((1-methyl-1H-imidazol-5-yl)ethynyl)-2,3-dihydro-2,5-methanopyrido[3,4-f][1,4]oxazepin-4(5H)-yl)(4-(trifluoromethyl)bicyclo [2.2.1]heptan-1-yl)methanone], the IC50 worked out at 26 nM. Regarding `O=C(N1C[C@@H]2C[C@H]1c1cncc(C#Cc3ccccn3)c1O2)C12CCC(C(F)(F)F)(CC1)C2` [Compound 2-60, ((2S,5S)-9-(pyridin-2-ylethynyl)-2,3-dihydro-2,5-methanopyrido[3,4-f][1,4]oxazepin-4(5H)-yl)(4-(trifluoromethyl)bicyclo [2.2.1]heptan-1-yl)methanone], the IC50 was 73 nM. `CC(C)(C(=O)N1C[C@@H]2C[C@H]1c1cncc(C#CCC3CCCCC3)c1O2)C(F)F` [Compound 2-109, 1-((2S,5S)-9-(3-cyclohexylprop-1-yn-1-yl)-2,3-dihydro-2,5-methanopyrido[3,4-f][1,4]oxazepin-4(5H)-yl)-3,3-difluoro-2,2-dimethylpropan-1-one]: the IC50 came to 184 nM. `N#Cc1cncc2c1S[C@H]1C[C@@H]2N(C(=O)C23CCC(C(F)(F)F)(CC2)C3)C1` [Compound 4-2, (2S,5S)-4-(4-(trifluoromethyl)bicyclo[2.2.1]heptane-1-carbonyl)-2,3,4,5-tetrahydro-2,5-methanopyrido[3,4-f][1,4]thiazepine-9-carbonitrile]: the IC50 stood at 15 nM. To `Cc1ncc(C#Cc2cncc3c2O[C@H]2C[C@@H]3N(C(=O)C(C)(C)C(F)F)C2)c(C)n1` [Compound 2-95, 1-((2S,5S)-9-((2,4-dimethylpyrimidin-5-yl)ethynyl)-2,3-dihydro-2,5-methanopyrido[3,4-f][1,4]oxazepin-4(5H)-yl)-3,3-difluoro-2,2-dimethylpropan-1-one] belongs 36 nM; to `N#Cc1cncc2c1O[C@H]1C[C@@H]2N(C(=O)C23CCC(C(F)F)(CC2)C3)C1` [Compound 1-19, (2S,5S)-4-[4-(difluoromethyl)bicyclo[2.2.1]heptane-1-carbonyl]-2,3,4,5-tetrahydro-2,5-metanopyrido[3,4-f][1,4]oxazepine-9-carbonitrile], 24 nM.

Consider `CC(C)C1(C(=O)N2C[C@@H]3C[C@H]2c2cncc(C#N)c2O3)CC1` [Compound 1-79, (2S,5S)-4-(1-isopropylcyclopropane-1-carbonyl)-2,3,4,5-tetrahydro-2,5-methanopyrido[3,4-f][1,4]oxazepine-9-carbonitrile], for which the IC50 stood at 446 nM. Regarding `CC(F)(F)C(C)(C)C(=O)N1C[C@@H]2C[C@H]1c1cncc(F)c1O2` [Compound 2-22, 3,3-difluoro-1-((2S,5S)-9-fluoro-2,3-dihydro-2,5-methanopyrido[3,4-f][1,4]oxazepin-4(5H)-yl)-2,2-dimethylbutan-1-one], the IC50 was found to be 67 nM.

As for `CC1(C(=O)N2C[C@@H]3C[C@H]2c2cncc(C#N)c2O3)CC2CCC1C2` (stereo partly drawn) [Compound 1-69, (2S,5S)-4-(2-methylbicyclo[2.2.1]heptane-2-carbonyl)-2,3,4,5-tetrahydro-2,5-methanopyrido[3,4-f][1,4]oxazepine-9-carbonitrile], the IC50 was found to be 77 nM. With `O=C(N1C[C@@H]2C[C@H]1c1cncc(F)c1O2)C12CCC(CC1)C2` [Compound 2-21, bicyclo[2.2.1]heptan-1-yl((2S,5S)-9-fluoro-2,3-dihydro-2,5-methanopyrido[3,4-f][1,4]oxazepin-4(5H)-yl)methanone], the IC50 came out at 37 nM. For `CC1(C(=O)N2C[C@@H]3C[C@H]2c2cncc(C#N)c2O3)CC1C(F)(F)F` (stereo partly drawn) [Compound 1-46, (2S,5S)-4-[1-methyl-2-(trifluoromethyl)cyclopropane-1-carbonyl]-2,3,4,5-tetrahydro-2,5-methanopyrido[3,4-f][1,4]oxazepine-9-carbonitrile], the IC50 is 78 nM. To `N#CC12CCC(C(=O)N3C[C@@H]4C[C@H]3c3cncc(Cl)c3O4)(C1)C2` [Compound 2-26, 4-((2S,5S)-9-chloro-2,3,4,5-tetrahydro-2,5-methanopyrido[3,4-f][1,4]oxazepine-4-carbonyl)bicyclo[2.1.1] hexane-1-carbonitrile] belongs 87 nM; to `CC(C)(C(=O)N1C[C@@H]2C[C@H]1c1cncc(C#Cc3cnc4c(Cl)cnn4c3)c1O2)C(F)F` [Compound 2-81, 1-((2S,5S)-9-((3-chloropyrazolo[1,5-a]pyrimidin-6-yl)ethynyl)-2,3-dihydro-2,5-methanopyrido[3,4-f][1,4]oxazepin-4(5H)-yl)-3,3-difluoro-2,2-dimethylpropan-1-one], 22 nM. As to `CC(C)(C#N)C(=O)N1C[C@@H]2C[C@H]1c1cncc(C#N)c1S2` [Compound 4-5, (2S,5S)-4-(2-cyano-2-methylpropanoyl)-2,3,4,5-tetrahydro-2,5-methanopyrido[3,4-f][1,4]thiazepine-9-carbonitrile], the IC50 came to 99 nM.
